According to PMC5073322, “Novel Natural Product-like Caged Xanthones Bearing a Carbamate Moiety Exhibit Antitumor Potency and Anti-Angiogenesis Activity In vivo” (Scientific Reports, 2016):

Tests used:
[1] = test system: HUVECs; test: Wound healing assay (hypoxia-induced migration); type: cell-based, human; details: 0.01, 0.05 and 0.25 μM, 24 h
Protocol: GA was reported to inhibit tumour angiogenesis and may be a viable drug candidate for anti-angiogenesis and anticancer therapies. Therefore, the anti-angiogenesis activity of the caged xanthone derivative 8n was evaluated. Human umbilical vein endothelial cells (HUVECs) were used in all experiments. Cell migration is critical for endothelial cells to form blood vessels during angiogenesis, tumour growth and metastasis. […] Endothelial cell invasion is a critical part of angiogenesis; therefore, a transwell assay was performed to evaluate the ability of inactivated HUVECs to pass through the transwell membrane barrier in the presence of 8n.
Figure 8 8n had anti-angiogenesis activity in vitro and in vivo. (A) A wound-healing assay was used to evaluate the motility of HUVECs after treatment with 8n for 24 h. (B) Changes in cell motility were evaluated using a transwell assay of cell migration and invasion. (C) The effect of 8n on tube formation by HUVECs. HUVECs were incubated with 8n for 6 h and then transferred to Matrigel for 6 h. (D) Zebrafish embryos treated with blank control or 1, 10, or 50 μg/ml of 8n.
HUVECs were incubated in a 6-well plate until full confluence. […] Then, the wound edges were photographed under an inverted-phase microscope and measured.

[2] = test system: HCT116; test: MTT antiproliferative assay, HCT116; details: read-out: IC50 HCT116; MTT, 72 h
Protocol: (§1) The inhibition of tumour cell growth was measured by a modified tetrazolium (MTT) salt assay, as previously described[39]. Cells were cultured in a 96-well plate and treated with culture medium alone or different concentrations of the compounds. The cells were incubated for 72 h, and then, the MTT assay reagent was added. After a 4 h incubation, the formazan product was quantitated at 570 nm. The IC50 values (the concentrations that gave rise to 50% inhibition of cell viability) were calculated using GraphPad Prism 6 using a variable slope (four parameters).

[3] = test system: HepG2; test: MTT antiproliferative assay, HepG2; details: read-out: IC50 HepG2; MTT, 72 h
Protocol: as §1

[4] = test system: zebrafish embryos (intersegmental vessels); test: In vivo fluorescent zebrafish angiogenesis assay; details: 24 h
Protocol: Zebrafish has been proposed as a valid alternative animal model for investigating angiogenesis. The effect of 8n on embryonic angiogenesis in zebrafish was evaluated.
Transgenic zebrafish (VEGFR2: GFP) embryos were supplied using the drug screening platform of the Shandong Academy of Sciences Institute; they were grown and maintained according to the same protocols. The screen was carried out in 24-well plates. Compounds were prepared initially as a 10 mg/mL stock solution in dimethyl sulfoxide (DMSO). The stock solution was diluted to the relevant assay concentration with fish water, and 0.5% DMSO served as a vehicle control. The embryos were distributed in 24-well plates, with 10 embryos placed in each well. Then, a diluted solution of each compound was added. The embryos were exposed to the compound solution and incubated at 28.5 °C. After 24 h, the zebrafish were anesthetized with 0.01% tricaine and imaged under a fluorescence microscope (Olympus, Inc.) equipped with a SZX16 microscope and a DP2-BSW digital camera (Olympus, Inc.). The animal experiments were performed in accordance with the approval of the Chinese Academy of Medical Sciences and the Biology Institute of Shandong Academy of Sciences. All studies were performed in accordance with the approved guidelines from the China Zebrafish Resource Center with the approved protocol number of 2012CB944504.

[5] = test system: VEGF; test: VEGF mRNA by real-time RT-PCR; type: cell-based; details: hypoxia, VEGF/GAPDH
Protocol: Figure 9 (A) The caged compounds (50 μM) inhibited the Hsp90 ATPase activity in a HTRF-based inhibition assay. (B) The IC50 values for the inhibition of Hsp90 ATPase by 8n, 8o and GA as detected by the HTRF Transcreener ADP kit. The test compounds were diluted to obtain a range of concentrations and incubated with Hsp90 and ATP. The amount of ADP generated was detected. (C) Western blots of the Hsp90 client proteins after HepG2 cells were treated with the indicated concentrations of 8n for 24 h. (D) The mRNA expression of VEGF was determined by real-time quantitative reverse-transcriptase polymerase chain reaction (RT-PCR) and analysed by the delta Ct method. The bars represent the means with standard error of the mean (SEM) and the fold change in the VEGF/GAPDH ratio relative to the vehicle-treated group. The different significance levels are indicated as **P < 0.05.
The influence of 8n on the degradation of Hsp90 client proteins was monitored by WB analysis. HepG2 cells were treated with different concentrations of 8n for 24 h. […] HIF-1α, as a key modulator of angiogenesis and an important client protein of Hsp90, was also examined, and the expression of HIF-1α decreased after treatment with 8n.

[6] = test system: Caspase-3 and PARP in HepG2 cells; test: Western blot of apoptosis-related proteins; type: cell-based, human; details: HepG2, 24 h
Protocol: Figure 6 (A) Morphological changes in cancer cells and nuclei. (B) 8n induced apoptosis in HepG2 cells. Cultured HepG2 cells were treated with the indicated concentrations of 8n for 48 h. The cells were then were stained with DAPI and observed by fluorescence microscopy. (C) 8n induces apoptosis in a dose-dependent manner. HepG2 cells were treated with different concentrations of 8n for 48 h, and Annexin V and propidium iodide staining were performed. (D) The percentages of early apoptotic and total apoptotic cells were quantified using flow cytometry. *p < 0.05; **p < 0.01. (E) The expression of apoptotic-related proteins in HepG2 cells treated with 8n. HepG2 cells were treated with various concentrations of 8n for 24 h and were then harvested and lysed. The expression levels of Caspase-3, Cleaved Caspase-3, Bax, Bcl-2, PARP and cleaved PARP were measured by Western blotting. TEXT PRINTED IN THE PICTURE: (C) Compound 8n: Dead 1.50 % (Control); Late Apop./Dead 4.95 % (Control); Early Apop. 1.05 % (Control); Dead 1.95 % (0.1 μM); Late Apop./Dead 7.80 % (0.1 μM); Early Apop. 1.60 % (0.1 μM); Dead 7.81 % (0.3 μM); Late Apop./Dead 9.19 % (0.3 μM); Early Apop. […]
The cells were washed with PBS and lysed with ice-cold lysis buffer supplemented with protease inhibitors (Roche) for 30 min. The protein content of the supernatants of lysates was determined using a bicinchoninic acid assay. […]

[7] = test system: A549; test: MTT antiproliferative assay, A549; details: read-out: IC50 A549; MTT, 72 h
Protocol: as §1

CC(C)=CCC12OC(C)(C)C3CC(C=C4C(=O)c5c(OC(=O)N6CCC(N7CCCCC7)CC6)cccc5OC431)C2=O (centres unmarked) [Compound 8n]
hypoxia-induced migration of HUVECs [1]: suppressed hypoxia-induced migration in a concentration-dependent manner
IC50 [2]: 970 ± 120 nM
IC50 [3]: 1320 ± 450 nM
formation of intersegmental vessels ([4]; 10 μg/ml or 5 μg/ml): considerably inhibited
formation of intersegmental vessels ([4]; 50 μg/ml): completely blocked
hypoxic induction of VEGF expression (mRNA) [5]: substantially repressed
levels of cleaved caspase-3/PARP [6]: increased
IC50 [7]: 7230 ± 560 nM
